{"source": "the supplement of paper PMC12513837", "note": "± gives the standard deviation of the averaged measurements."}
{"compound": "CC(=O)N1CCc2c(c(N3CCCc4cc(-c5cnn(C)c5)c(C(F)F)cc43)nn2C2CCC(CN3CCN(c4ccc5c(c4)C(=O)N(C4CCC(=O)NC4=O)C5=O)CC3)CC2)C1 [CBPD-409]", "assay": "AUC of viability dose-response curve (relative to vehicle, 8 doses up to 10 µM) (fraction); higher = less sensitive (more viable); extreme values may be limits of the assay", "description": "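PRISM multiplexed pooled barcoded cell line viability screen at the Broad Institute, 887 cancer cell lines treated with CBPD-409 (p300/CBP PROTAC degrader) at 8 concentrations in threefold dilution, top dose 10 µM. The read-out is the area under the dose-response curve of relative viability versus vehicle (n=3). AUC < 0.3 is called strongly sensitive and AUC > 0.8 resistant.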"}
{"test system": "ICC12_BILIARY_TRACT", "AUC of viability dose-response curve": 1}
{"test system": "ICC15_BILIARY_TRACT", "AUC of viability dose-response curve": 0.265}
{"test system": "ICC137_BILIARY_TRACT", "AUC of viability dose-response curve": 0.501}
{"test system": "IGR1_SKIN", "AUC of viability dose-response curve": 0.626}
{"test system": "IGR37_SKIN", "AUC of viability dose-response curve": 0.229}
{"test system": "IGR39_SKIN", "AUC of viability dose-response curve": 0.847}
{"test system": "IGROV1_OVARY", "AUC of viability dose-response curve": 0.956}
{"test system": "IHH4_THYROID", "AUC of viability dose-response curve": 0.762}
{"test system": "IM95_STOMACH", "AUC of viability dose-response curve": 0.57}
{"test system": "IPC298_SKIN", "AUC of viability dose-response curve": 0.808}
{"test system": "ISHIKAWAHERAKLIO02ER_ENDOMETRIUM", "AUC of viability dose-response curve": 1}
{"test system": "ISTMES1_PLEURA", "AUC of viability dose-response curve": 0.481}
{"test system": "ISTMES2_PLEURA", "AUC of viability dose-response curve": 0.579}
{"test system": "J82_URINARY_TRACT", "AUC of viability dose-response curve": 0.921}
{"test system": "JAR_PLACENTA", "AUC of viability dose-response curve": 0.238}
{"test system": "JEG3_PLACENTA", "AUC of viability dose-response curve": 0.307}
{"test system": "JEKO1_HAEMATOPOIETIC_AND_LYMPHOID_TISSUE", "AUC of viability dose-response curve": 1}
{"test system": "JHH1_LIVER", "AUC of viability dose-response curve": 0.282}
{"test system": "JHH4_LIVER", "AUC of viability dose-response curve": 0.997}
{"test system": "JHH5_LIVER", "AUC of viability dose-response curve": 0.614}
{"test system": "JHH7_LIVER", "AUC of viability dose-response curve": 0.291}
{"test system": "JHOC5_OVARY", "AUC of viability dose-response curve": 1}
{"test system": "JHOM1_OVARY", "AUC of viability dose-response curve": 0.99}
{"test system": "JHOS2_OVARY", "AUC of viability dose-response curve": 0.472}
{"test system": "JHUEM2_ENDOMETRIUM", "AUC of viability dose-response curve": 0.965}
{"test system": "JHUEM7_ENDOMETRIUM", "AUC of viability dose-response curve": 1}
{"test system": "JIMT1_BREAST", "AUC of viability dose-response curve": 1}
{"test system": "JJN3_HAEMATOPOIETIC_AND_LYMPHOID_TISSUE", "AUC of viability dose-response curve": 0.896}
{"test system": "JL1_PLEURA", "AUC of viability dose-response curve": 0.532}
{"test system": "JM1_HAEMATOPOIETIC_AND_LYMPHOID_TISSUE", "AUC of viability dose-response curve": 0.4}
{"test system": "JMSU1_URINARY_TRACT", "AUC of viability dose-response curve": 1}
{"test system": "JMURTK2_SOFT_TISSUE", "AUC of viability dose-response curve": 0.399}
{"test system": "JOPACA1_PANCREAS", "AUC of viability dose-response curve": 1}
{"test system": "JR_SOFT_TISSUE", "AUC of viability dose-response curve": 0.34}
{"test system": "JURKAT_HAEMATOPOIETIC_AND_LYMPHOID_TISSUE", "AUC of viability dose-response curve": 0.66}
{"test system": "JURLMK1_HAEMATOPOIETIC_AND_LYMPHOID_TISSUE", "AUC of viability dose-response curve": 0.361}
{"test system": "JVM3_HAEMATOPOIETIC_AND_LYMPHOID_TISSUE", "AUC of viability dose-response curve": 1}
{"test system": "K029AX_SKIN", "AUC of viability dose-response curve": 0.793}
{"test system": "K562_HAEMATOPOIETIC_AND_LYMPHOID_TISSUE", "AUC of viability dose-response curve": 1}
{"test system": "KALS1_CENTRAL_NERVOUS_SYSTEM", "AUC of viability dose-response curve": 1}
{"test system": "KARPAS299_HAEMATOPOIETIC_AND_LYMPHOID_TISSUE", "AUC of viability dose-response curve": 1}
{"test system": "KARPAS422_HAEMATOPOIETIC_AND_LYMPHOID_TISSUE", "AUC of viability dose-response curve": 0.752}
{"test system": "KARPAS620_HAEMATOPOIETIC_AND_LYMPHOID_TISSUE", "AUC of viability dose-response curve": 0.449}
{"test system": "KARPAS1718_HAEMATOPOIETIC_AND_LYMPHOID_TISSUE", "AUC of viability dose-response curve": 0.585}
{"test system": "KATOIII_STOMACH", "AUC of viability dose-response curve": 0.581}
{"test system": "KCL22_HAEMATOPOIETIC_AND_LYMPHOID_TISSUE", "AUC of viability dose-response curve": 0.552}
{"test system": "KD_SOFT_TISSUE", "AUC of viability dose-response curve": 0.299}
{"test system": "KE37_HAEMATOPOIETIC_AND_LYMPHOID_TISSUE", "AUC of viability dose-response curve": 0.925}
{"test system": "KE39_STOMACH", "AUC of viability dose-response curve": 1}
{"test system": "KE97_STOMACH", "AUC of viability dose-response curve": 1}
{"test system": "KELLY_AUTONOMIC_GANGLIA", "AUC of viability dose-response curve": "0.234 ± 0.054"}
{"test system": "KHM1B_HAEMATOPOIETIC_AND_LYMPHOID_TISSUE", "AUC of viability dose-response curve": 0.665}
{"test system": "KKU055_BILIARY_TRACT", "AUC of viability dose-response curve": 0.915}
{"test system": "KKU100_BILIARY_TRACT", "AUC of viability dose-response curve": 0.994}
{"test system": "KKU213_BILIARY_TRACT", "AUC of viability dose-response curve": 0.767}
{"test system": "KLE_ENDOMETRIUM", "AUC of viability dose-response curve": 0.91}
{"test system": "KMBC2_URINARY_TRACT", "AUC of viability dose-response curve": 0.841}
{"test system": "KMCH1_BILIARY_TRACT", "AUC of viability dose-response curve": 0.96}
{"test system": "KMH2_HAEMATOPOIETIC_AND_LYMPHOID_TISSUE", "AUC of viability dose-response curve": 1}
{"test system": "KMRC1_KIDNEY", "AUC of viability dose-response curve": 1}
{"test system": "KMRC3_KIDNEY", "AUC of viability dose-response curve": 0.906}
{"test system": "KMRC20_KIDNEY", "AUC of viability dose-response curve": 0.738}
{"test system": "KMS11_HAEMATOPOIETIC_AND_LYMPHOID_TISSUE", "AUC of viability dose-response curve": 0.497}
{"test system": "KMS12BM_HAEMATOPOIETIC_AND_LYMPHOID_TISSUE", "AUC of viability dose-response curve": 0.28}
{"test system": "KMS18_HAEMATOPOIETIC_AND_LYMPHOID_TISSUE", "AUC of viability dose-response curve": 0.466}
{"test system": "KMS27_HAEMATOPOIETIC_AND_LYMPHOID_TISSUE", "AUC of viability dose-response curve": 0.801}
{"test system": "KMS28BM_HAEMATOPOIETIC_AND_LYMPHOID_TISSUE", "AUC of viability dose-response curve": 0.583}
{"test system": "KNS42_CENTRAL_NERVOUS_SYSTEM", "AUC of viability dose-response curve": 0.413}
{"test system": "KNS60_CENTRAL_NERVOUS_SYSTEM", "AUC of viability dose-response curve": 0.779}
{"test system": "KNS62_LUNG", "AUC of viability dose-response curve": 0.953}
{"test system": "KNS81_CENTRAL_NERVOUS_SYSTEM", "AUC of viability dose-response curve": 1}
{"test system": "KON_UPPER_AERODIGESTIVE_TRACT", "AUC of viability dose-response curve": 0.7}
{"test system": "KOPN8_HAEMATOPOIETIC_AND_LYMPHOID_TISSUE", "AUC of viability dose-response curve": 0.704}
{"test system": "KOSC2CL343_UPPER_AERODIGESTIVE_TRACT", "AUC of viability dose-response curve": 0.875}
{"test system": "KP2_PANCREAS", "AUC of viability dose-response curve": 0.512}
{"test system": "KP3_PANCREAS", "AUC of viability dose-response curve": 1}
{"test system": "KP4_PANCREAS", "AUC of viability dose-response curve": 0.625}
{"test system": "KS1_CENTRAL_NERVOUS_SYSTEM", "AUC of viability dose-response curve": 0.307}
{"test system": "KU1919_URINARY_TRACT", "AUC of viability dose-response curve": 0.267}
{"test system": "KURAMOCHI_OVARY", "AUC of viability dose-response curve": 0.967}
{"test system": "KYM1_SOFT_TISSUE", "AUC of viability dose-response curve": 0.446}
{"test system": "KYO1_HAEMATOPOIETIC_AND_LYMPHOID_TISSUE", "AUC of viability dose-response curve": 0.628}
{"test system": "KYSE30_OESOPHAGUS", "AUC of viability dose-response curve": 0.619}
{"test system": "KYSE70_OESOPHAGUS", "AUC of viability dose-response curve": 1}
{"test system": "KYSE140_OESOPHAGUS", "AUC of viability dose-response curve": 1}
{"test system": "KYSE150_OESOPHAGUS", "AUC of viability dose-response curve": 0.834}
{"test system": "KYSE180_OESOPHAGUS", "AUC of viability dose-response curve": 0.929}
{"test system": "KYSE270_OESOPHAGUS", "AUC of viability dose-response curve": 0.722}
{"test system": "KYSE410_OESOPHAGUS", "AUC of viability dose-response curve": 0.901}
{"test system": "KYSE450_OESOPHAGUS", "AUC of viability dose-response curve": 0.761}
{"test system": "KYSE510_OESOPHAGUS", "AUC of viability dose-response curve": 0.928}
{"test system": "KYSE520_OESOPHAGUS", "AUC of viability dose-response curve": 0.797}
{"test system": "L33_PANCREAS", "AUC of viability dose-response curve": 0.692}
{"test system": "L82_HAEMATOPOIETIC_AND_LYMPHOID_TISSUE", "AUC of viability dose-response curve": 0.44}
{"test system": "LAMA84_HAEMATOPOIETIC_AND_LYMPHOID_TISSUE", "AUC of viability dose-response curve": 0.832}
{"test system": "LC1SQSF_LUNG", "AUC of viability dose-response curve": 0.991}
{"test system": "LCLC103H_LUNG", "AUC of viability dose-response curve": 1}
{"test system": "LI7_LIVER", "AUC of viability dose-response curve": 1}
{"test system": "LK2_LUNG", "AUC of viability dose-response curve": 0.178}
{"test system": "LMSU_STOMACH", "AUC of viability dose-response curve": 0.672}
{"test system": "LN18_CENTRAL_NERVOUS_SYSTEM", "AUC of viability dose-response curve": 0.607}
{"test system": "LN229_CENTRAL_NERVOUS_SYSTEM", "AUC of viability dose-response curve": 1}
{"test system": "LN382_CENTRAL_NERVOUS_SYSTEM", "AUC of viability dose-response curve": 1}
{"test system": "LN464_CENTRAL_NERVOUS_SYSTEM", "AUC of viability dose-response curve": 0.404}
